In paper PMC5622107, “Small molecule inhibition of cGAS reduces interferon expression in primary macrophages from autoimmune mice” (Nature Communications, 2017):
pIC50: −log10 of the molar value. Where two headings read alike, the source gives them in different places.

Assays:
mouse cGAS = target: T1, mouse cGAS (Mus musculus, UniProt Q8C6L5); assay: RapidFire mass spectrometry (RF-MS) cGAS enzymatic assay, cGAMP product formation; type: biochemical; details: for inhibition at 12.5 µM: read-out: % inhibition at 12.5 µM
T1 construct: recombinant full-length mouse cGAS in reaction buffer; His6-SUMO (N, cleaved yes); made in house; host or cells: E. coli BL21(DE3) RIL
T1 sequence (Q8C6L5 whole entry): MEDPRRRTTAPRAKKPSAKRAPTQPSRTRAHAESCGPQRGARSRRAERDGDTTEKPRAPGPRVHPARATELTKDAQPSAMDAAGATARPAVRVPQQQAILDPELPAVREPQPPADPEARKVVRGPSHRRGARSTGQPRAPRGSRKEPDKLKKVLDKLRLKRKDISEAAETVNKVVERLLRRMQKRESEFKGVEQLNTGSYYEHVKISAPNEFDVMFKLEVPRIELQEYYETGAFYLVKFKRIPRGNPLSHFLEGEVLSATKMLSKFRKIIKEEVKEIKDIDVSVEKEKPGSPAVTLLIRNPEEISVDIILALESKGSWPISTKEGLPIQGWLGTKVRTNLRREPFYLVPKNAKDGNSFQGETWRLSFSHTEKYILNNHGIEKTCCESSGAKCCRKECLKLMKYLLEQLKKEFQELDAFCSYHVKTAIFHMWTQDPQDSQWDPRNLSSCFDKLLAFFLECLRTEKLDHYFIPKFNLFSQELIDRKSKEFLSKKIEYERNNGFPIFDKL
Procedure: The liquid was collected at the well bottom using centrifugation for 30 s at 180×g. […] Plates were centrifuged for 30 s at 180×g to collect all liquid at the bottom of the wells. […] The reaction was stopped by addition of 65 µl of 0.5% (v/v) formic acid per well. The plates were centrifuged for 30 s at 180×g and sealed with a Velocity11 PlateLoc thermal plate sealer.
The solvent used for loading/washing process was an aqueous solution of 5 mM ammonium acetate, pH 10. […] Each sample of approximately 35 µl were aspirated from a 384-well plate and separated using a Graphitic carbon Type D cartridge. After each sample was loaded onto the cartridge it was washed for 4 s at 1.5 ml min^−1 using the aqueous solvent. ATP, GTP and cGAMP were eluted for 5 s using the organic solvent at a flow rate of 1.5 ml min^−1. The cartridge was then re-equilibrated with the aqueous solvent for 5 s at a flow rate of 1.5 ml min^−1. All samples were analyzed using a negative ionization mode in the mass spectrometer, with a gas temperature of 350 °C, nebulizer pressure of 35 psig, gas flow rate of 15 l min^−1. […] The Agilent RapidFire Integrator software was used to calculate the area under the curve (AUC) of the extracted ion counts for each analyte. Data points represent values of product formation. Catalytic rates expressed as percent product formation were calculated using the AUC of cGAMP and using the AUC’s of ATP and GTP to normalize for variations in the capacity of the solid phase extraction column during a screening run, as shown in the following formula: product formation (%) = [(AUCcGAMP × 100)/(AUCcGAMP + ½ AUCATP + ½ AUCGTP)].
To determine the percent inhibition of mouse cGAS the data was normalized against the positive control (column 24) and negative control (column 23). […] The quality of the screen was assessed by Z′ factor[57] calculated as follows: Z′ = 1−[3∗(standard deviation positive control + standard deviation negative control)/(average positive control—average negative control)].

45-bp dsDNA = assay: DNA intercalation: acridine orange displacement from dsDNA by fluorescence polarization; type: binding; details: Supplementary Table 2; for Polarization: compound 30 µM; for % intercalation at 30 µM: acridine orange displacement compared to mitoxantrone
Procedure: Ten microliters of HEN buffer (10 mM HEPES pH 7.5, 1 mM EDTA pH 7.5, 100 mM NaCl) were dispensed per well using a Thermo Multidrop Combi dispenser (Thermo Scientific). The liquid was collected at the well bottom using centrifugation for 30 s at 180×g. […] The final concentration of compounds in the assay was 30 µM. […] The liquid was collected at the well bottom using centrifugation for 30 s at 180×g. […] The liquid was collected at the well bottom using centrifugation for 30 s at 180 × g and the plates were incubated for 30 min. Mitoxantrone, a known DNA intercalator was used at 50 µM as a positive control, while DMSO alone was used as negative control. FP was measured using a Biotek Synergy Neo plate reader. […] All FP values are expressed in millipolarization (mP) units. The mP values were calculated using the equation mP = 1000 × [(I S−I SB)−(I P−I PB)]/[I S—I SB) + (I P−I PB)], where I S and […] to the parallel and perpendicular emission intensity, respectively, and I SB and I SP corresponds to parallel emission intensity perpendicular emission intensity of the buffer, respectively. The experimental G-factor, defined as G = I S/I P, was set to 1.0 in all experiments.

[1] = Supplementary Table 2, batch of compounds stored in the screening library, read-out: IC50
[2] = Supplementary Table 2, compound 12.5 µM

Structure (SMILES) | pIC50 (mouse cGAS; [1]) | inhibition at 12.5 µM (mouse cGAS; [2]) [%] | Polarization (45-bp dsDNA) [mP] | % intercalation at 30 µM (45-bp dsDNA) [%] | % inhibition at 12.5 µM (mouse cGAS; [2]) [%] | pIC50 (mouse cGAS) | inhibition at 12.5 µM (mouse cGAS) [%]
Nc1c2ccccc2nc2ccccc12 [RU431] | 5.55 | 78 | 145 | – | – | – | –
O=C(O)COc1cc(Cl)c(Cl)cc1Cl [RU1535] | 6.26 | 98 | 244 | 3.4 | – | – | –
N#Cc1ccc(/C=C2\CS(=O)(=O)c3c(F)cccc3C2=O)cc1 [RU198755] | 5.20 | 63 | 263 | -6.2 | – | – | –
CCOC(=O)c1n[nH]c2c1C(=O)N(CC)C2=O [RU4893] | 5.19 | 62 | 254 | -1.4 | – | – | –
O=C(O)c1cc(O)c2c(c1)[C@@H]([C@H]1c3cc(C(=O)O)cc(O)c3C(=O)c3c(O[C@H]4O[C@H](CO)[C@@H](O)[C@H](O)[C@H]4O)cccc31)c1cccc(O[C@H]3O[C@H](CO)[C@@H](O)[C@H](O)[C@H]3O)c1C2=O [RU646] | 5.06 | 82 | 278 | -13.5 | – | – | –
COC(=O)C1=NN2C(=NS(=O)(=O)c3ccccc32)N1 [RU209189] | 5.35 | 91 | 251 | 0.0 | – | – | –
CCOc1ccc2nc3cc(N)ccc3c(N)c2c1 [RU1667] | 6.00 | – | 139 | 54.5 | 92 | – | –
Cc1nc2nc(C)c(Br)c(O)n2n1 [RU6753] | 5.10 | 69 | 252 | -0.5 | – | – | –
CCN(CC)CCNc1ccc(CO)c2sc3ccccc3c(=O)c12 [RU869] | 5.17 | 66 | 85 | 81.2 | – | – | –
CC(C)OC(=O)C(C#N)=Cc1ccc([N+](=O)[O-])o1 [RU94102] | 5.09 | 64 | 267 | -8.1 | – | – | –
COc1cccc2c1C(=O)c1c(O)c3c(c(O)c1C2=O)C[C@@](O)(C(C)=O)C[C@@H]3OC1CC(N)C(O)C(C)O1 (some centres unmarked) [RU24146] | 6.16 | 93 | 55 | – | – | – | –
NC(=O)N1C(=O)/C(=C(\O)c2cccs2)c2cc(Cl)ccc21 [RU187170] | 5.22 | 70 | 276 | – | – | – | –
O=c1cc(CCn2cccn2)nc(-c2ccc(CN3CCC[C@@H]3CO)cc2)[nH]1 [RU234543] | 5.17 | 89 | 270 | -9.3 | – | – | –
O=C1c2c(O)ccc(O)c2C(=O)c2c(NCCNCCO)ccc(NCCNCCO)c21 [RU627] | 6.14 | 94 | 41 | 102.5 | – | – | –
CCN(CC)CCCC(C)Nc1c2ccc(Cl)cc2nc2ccc(OC)cc12 (centres unmarked) [RU316] | 5.21 | – | 140 | – | 68 | – | –
CCC1=NN2C(=N)/C(=C/c3ccc(O)cc3)C(=O)N=C2S1 [RU169196] | 5.37 | 89 | 266 | -7.5 | – | – | –

Structure (SMILES) | pIC50 (mouse cGAS; [1]) | inhibition at 12.5 µM (mouse cGAS; [2]) [%] | Polarization (45-bp dsDNA) [mP] | % intercalation at 30 µM (45-bp dsDNA) [%] | % inhibition at 12.5 µM (mouse cGAS; [2]) [%] | pIC50 (mouse cGAS) | inhibition at 12.5 µM (mouse cGAS) [%]
COc1cccc2c1C(=O)c1c(O)c3c(c(O)c1C2=O)C[C@@](O)(C(C)=O)C[C@@H]3O[C@H]1C[C@H](N)[C@H](O)[C@H](C)O1 [RU83653] | 5.74 | 91 | 50 | 98.0 | – | – | –
O=[N+]([O-])c1ccc(O)c([N+](=O)[O-])c1 [RU803] | – | – | 260 | -4.7 | – | 6.06 | 96
Cc1ccc(C(=O)c2nc3c(n2O)CCCCC3)cc1 [RU171395] | 6.60 | 90 | 251 | -0.3 | – | – | –
O=c1[nH]n2c(=O)c3ccccc3nc2c2ccccc12 [RU5004] | 5.19 | 90 | 255 | -2.1 | – | – | –
N#CC1=C(N)SC(N)=C(C#N)C1c1ccc([N+](=O)[O-])cc1 [RU107796] | 5.06 | 62 | 266 | -7.6 | – | – | –
N#Cc1cc(I)c(O)c([N+](=O)[O-])c1 [RU187299] | 6.24 | 95 | 256 | -2.8 | – | – | –
O=C(Nc1nncs1)c1cn(-c2ccccc2Br)nn1 [RU191669] | 5.04 | 71 | 253 | -1.0 | – | – | –
CCC1=NN2C(=N)/C(=C/c3cccs3)C(=O)N=C2S1 [RU169248] | 5.48 | 97 | 262 | -5.7 | – | – | –
CS(=O)(=O)c1ncc2c(n1)c(=O)c(C#N)c1[nH]c3ccccc3c(=O)n12 [RU207488] | 5.33 | 67 | 272 | – | – | – | –
CC[n+]1c(-c2ccccc2)c2cc(N)ccc2c2ccc(N)cc21 [RU662] | 6.37 | 97 | 42 | 101.9 | – | – | –
O=C(O)C1CSC(c2cc(Br)c(O)c(Br)c2)N1 (centres unmarked) [RU5512] | 5.52 | 87 | 264 | -6.3 | – | – | –
O=C1NC(=S)SC1=Cc1ccccc1F [RU116287] | 5.19 | 63 | 271 | -9.8 | – | – | –
COc1cccc2c1C(=O)c1c(O)c3c(c(O)c1C2=O)C[C@@](O)(C(=O)CO)C[C@@H]3O[C@H]1C[C@H](N)[C@@H](O)[C@H](C)O1 [RU162145] | – | 98 | 53 | 96.5 | – | 6.24 | –
S=c1[nH]nc(-c2sc3ccccc3c2Cl)o1 [RU3433] | 5.21 | 92 | 288 | – | – | – | –
C[n+]1cc2c3c(ccc2c2ccc4cc5c(cc4c21)OCO5)OCO3 [RU871] | 5.47 | 85 | 56 | 95.0 | – | – | –
CC[C@@]1(O)C[C@H](O[C@H]2C[C@H](N(C)C)[C@H](O)[C@H](C)O2)c2c(cc3c(c2O)C(=O)c2c(O)cccc2C3=O)[C@H]1C(=O)OC [RU891] | 5.85 | 98 | 65 | 90.6 | – | – | –
